Measured values reported in patent US20240123036A1, “COMPOSITIONS AND METHODS FOR THE TREATMENT OF GRAFT VERSUS HOST DISEASE” (VectivBio AG, priority 2021, published 2024).
Like-named read-outs stand apart in the source and are kept apart here. Square brackets hold non-standard residues; d marks the D form. Peptide text beside a SMILES is read from it. ξ: configuration not given here. Ile(3ξ) = CCC(C)[C@H](N)C(=O)O; Thr(3ξ) = CC(O)[C@H](N)C(=O)O; Nle = CCCC[C@H](N)C(=O)O

Legend:
[1] = tested on: blood cells of Balb/c mice; assay: Melphalan-induced immunosuppression in Balb/c mice (Example 5, third experiment); format: in vivo, mouse
Protocol: In a third experiment, the effect of apraglutide on melphalan-induced immunosuppression was assessed (FIG. 13). Three groups of Balb/c mice were included: (A) vehicle; (B) melphalan on Day 9; (C) melphalan on Day 9, apraglutide pre-treatment on Days 1, 3, 5, 7 and continued as co-administration on Days 9, 11, and 13. WBC, NEU and LYMPH were assessed.

[2] = tested on: cytarabine-induced damage in BALB/cJ female mice; settings: for polymorphonuclear (PMN) cell count: cytarabine 30 mg/kg twice per day, alone or combined with hGLP-2 or apraglutide, FIG. 20
Protocol: In a first experiment BALB/cJ female mice were separated into six groups for a dose-response study to assess the pharmacologic effect of increasing doses of apraglutide (0.11, 0.3 and 1.1 mg/kg) administered subcutaneously. Cytarabine was administered intraperitoneally at 30 mg/kg twice per day for 5 days (Day 0 to Day +4). Apraglutide was administered daily for a total of nine days, 4 days before and 5 days during the administration of chemotherapy (Day −4 to Day +4). Apraglutide effect was compared to unmodified hGLP-2 which was administered twice daily from Day −4 to Day +4, at a nominal dose of 0.60 mg/kg and combined with cytarabine.

[3] = tested on: blood cells of Balb/c mice; assay: Cytarabine-induced immunosuppression, blood cell counts in Balb/c mice (Example 5, second experiment); format: in vivo, mouse; set-up: reduction in lymphocytes / Red blood cells, percentage difference from control / Platelets, percentage difference from control / White blood cells, percentage difference from control / Lymphocytes, percentage difference from control / Neutrophils, percentage difference from control: concentration or dose not given beside the values
Protocol: In a second experiment, apraglutide's effect on the ability of cytarabine to induce immunosuppression was assessed. The experiment included three groups of Balb/c mice: (A) vehicle; (B) cytarabine on Days 5-9; (C) cytarabine on Days 5-9, concomitant apraglutide on Days 5-18. RBC, platelets, WBC, NEU and LYMPH were assessed. A cohort was allowed to survive for 4 weeks to assess the effect of apraglutide on immunosuppression recovery (FIG. 12).

[4] = tested on: hPBMC engraftment in NOG mice; assay: Engraftment of human PBMC in total-body-irradiated NOG mice (Example 2, first experiment); format: in vivo, mouse
Protocol: Engraftment rate was determined through CD45 expression in blood, bone marrow and spleen.

[5] = tested on: GvHD-induced intestinal damage in BALB/cJ mice; assay: TBI-induced intestinal damage and allogeneic transplantation in BALB/cJ mice (Example 2, second experiment); format: in vivo, mouse
Protocol: Intestinal damage indicative of GvHD (histological changes, length, hemorrhage, inflammation), body weight, and survival were assessed.

[6] = tested on: acute gastrointestinal GvHD in BALB/cJ male mice; assay: Acute GvHD mouse model, 7.0 Gy irradiation plus allogeneic transplant (Example 1, second experiment); format: in vivo
Excerpt: FIG. 3a-3b is a series of graphs showing colon length and small intestine length in an acute GvHD mouse model following treatment with apraglutide. Data are shown as the mean ±SEM length of intestinal colon. N-5-10/group. Each dot represents data for one mouse.
FIG. 14 is a series of graphs showing that treatment with apraglutide improves animal survival of TBI/BMT treated animals. Kaplan-Meier curves—Animal survival was monitored daily. N=10 at time=0 for each treatment group. […] When comparing to the control group, survival of TBI/BMT was significant different ### p=0.0007. BMT=b one marrow transplant; TBI=total body irradiation.

[7] = tested on: acute gastrointestinal GvHD in BALB/cJ male mice; assay: Acute GvHD mouse model, 8.5 Gy irradiation plus allogeneic bone marrow/spleen cell transplant (Example 1, first experiment); format: in vivo
Protocol: Mouse #3 (Group A), #13 (Group B) and #20 (Group B) were administered the cells by subcutaneous injection rather than intravenously. Mouse #5 (Group B) and #10 (Group B) received half the cells by intravenous injection and half by subcutaneous injection.
Following sacrifice of the mice, the colon lengths of the mice in Group A and Group B, as well as a control group of BALB/c mice (untreated), were measured. […] Thus, treatment with apraglutide protected the mice in Group A from a reduction in colon length, which is typically attributed to the inflammation caused by acute, gastrointestinal GvHD.
Various histological parameters of the jejunum were also measured, including single cell necrosis levels, necrosis of all crypts, shortening of villi, cryptal hyperplasia (regenerative), cell infiltrate, and cryptal abscess. These histological parameters were graded on a standard histological grading system (1 to 3). […] These indicate that the administration of apraglutide has a protective effective against jejunal mucosal damages induced by irradiation and GvHD.

[8] = tested on: chemotherapy-induced gastrointestinal damage in Balb/c mice; assay: Chemotherapy-induced (cytarabine or melphalan) intestinal damage in Balb/c mice (Example 3); format: in vivo, mouse
Protocol: In a first experiment, 4 groups of Balb/c mice: (A) vehicle only; (B) cytarabine on Days 5-9, no apraglutide given; (C) cytarabine on Days 5-9; concomitant apraglutide on Days 5-18; (D) cytarabine on Days 5-9; pre-treatment apraglutide on Days 1, 3, and continued as concomitant treatment on Days 5, 8, 11, 14, and 17. Treatment groups were dosed with 30 mg/kg cytarabine and/or apraglutide 3.3 mg/kg.
In a second experiment, 3 treatment groups of Balb/c mice: (A) vehicle only; (B) melphalan on Day 9, no apraglutide; (C) melphalan on Day 9; pre-treatment apraglutide on Days 1, 3, 5, 7 and continued as concomitant treatment on Days 9, 11, and 13.
In both models, mice that received vehicle without any treatment served as controls. Intestinal tissue histology, body weight, survival, and plasma citrulline, a marker of total mucosal mass and intestinal growth, was assessed in both models.

[9] = tested on: fecal microbiota (Bacteroidetes, Firmicutes) of Balb/c mice; settings: feces
[10] = tested on: human leukemia cells (hCD45+) in NOD/SCID mice; settings: Day 7; cytarabine Days 0-4; apraglutide or vehicle Days -4 to 4
Protocol: In a first experiment, cytarabine' s anti-tumor effects were assessed in leukemic NOD/SCID mice (FIG. 11a). Apraglutide or vehicle was administered on Days -4 to 4. Cytarabine or vehicle was administered on Days 0-4. Bone marrow and spleen samples were collected on Day 7 and percentage of hCD45+ cells determined.

[11] = Day 18 (post-treatment), cytarabine 30 mg/kg Days 5-9, apraglutide 3.3 mg/kg Days 1-18
[12] = melphalan on Day 9, with or without apraglutide

CCCC[C@H](NC(=O)[C@H](CCC(=O)O)NC(=O)[C@H](CC(=O)O)NC(=O)[C@H](CO)NC(=O)[C@H](Cc1ccccc1)NC(=O)[C@H](CO)NC(=O)CNC(=O)[C@H](CC(=O)O)NC(=O)CNC(=O)[C@@H](N)Cc1c[nH]cn1)C(=O)N[C@H](Cc1ccccc1)C(=O)N[C@H](C(=O)N[C@H](C(=O)N[C@@H](CC(C)C)C(=O)N[C@@H](CC(=O)O)C(=O)N[C@@H](CC(C)C)C(=O)N[C@@H](CC(C)C)C(=O)N[C@@H](C)C(=O)N[C@@H](C)C(=O)N[C@@H](CCCNC(=N)N)C(=O)N[C@@H](CC(=O)O)C(=O)N[C@@H](Cc1ccccc1)C(=O)N[C@H](C(=O)N[C@@H](CC(N)=O)C(=O)N[C@@H](Cc1c[nH]c2ccccc12)C(=O)N[C@@H](CC(C)C)C(=O)N[C@H](C(=O)N[C@@H](CCC(N)=O)C(=O)N[C@H](C(=O)N[C@@H](CCCCN)C(=O)N[C@H](C(=O)N[C@H](C(=O)N[C@@H](CC(=O)O)C(N)=O)C(C)O)C(C)CC)C(C)O)C(C)CC)C(C)CC)C(C)CC)C(C)O (stereo partly drawn) [apraglutide] (H-HGDGSFSDE[Nle][dF][Thr(3ξ)][Ile(3ξ)]LDLLAARDF[Ile(3ξ)]NWL[Ile(3ξ)]Q[Thr(3ξ)]K[Ile(3ξ)][Thr(3ξ)]D-NH2)
impact on cytarabine- or melphalan-induced immunosuppression ([1]; combination with apraglutide): no negative impact
animal survival ([2]; apraglutide 0.11 mg/kg s.c. daily Day -4 to +4 with cytarabine 30 mg/kg i.p. twice per day Day 0 to +4): 11/16
citrulline concentrations ([2]; apraglutide 0.33 mg/kg and 1.1 mg/kg co-administered with cytarabine, compared to cytarabine alone, FIG. 19): improvement
animal survival ([2]; apraglutide 0.33 mg/kg s.c. daily Day -4 to +4 with cytarabine 30 mg/kg i.p. twice per day Day 0 to +4): 14/16
animal survival ([2]; apraglutide 1.1 mg/kg s.c. daily Day -4 to +4 with cytarabine 30 mg/kg i.p. twice per day Day 0 to +4): 16/16
initial weight loss ([2]; combination with cytarabine, apraglutide 0.11 mg/kg, hGLP-2 0.60 mg/kg twice daily): did not decrease
body weight and survival in animals recovering from cytarabine treatment ([2]; combination with cytarabine, apraglutide 0.11 mg/kg, hGLP-2 0.60 mg/kg twice daily, FIG. 18): a trend towards increased body weight and survival
polymorphonuclear (PMN) cell count [2]: not reversed
recovery of hematological parameters ([3]; 4 weeks after the end of treatment): did not impact
engraftment rate in blood, spleen and bone marrow ([4]; apraglutide 3.3 mg/kg Days -6 to 18, CD45 expression): not affected
hCD45+ cells infiltration in the intestinal wall ([4]; apraglutide vs vehicle): no difference
engraftment rate in blood ([4]; at D20 in blood, range): 22.2-47.6%
lymphocyte engraftment ([5]; apraglutide 3.3 mg/kg Days -9 to +7): successfully achieved
mean colon length ([5]; apraglutide 3.3 mg/kg, TBI + allogeneic transplantation): 8.6±0.35 cm
mucosal degenerative/inflammatory changes (post-mortem histological examination) ([5]; apraglutide vs vehicle): less
overall survival ([5]; on Day +9, p=0.0134 vs vehicle): 40%
body weight of mice surviving beyond Day 9 ([6]; Group A (apraglutide)): regained body weight
weight loss ([6]; Group A (apraglutide) vs Group B (vehicle)): No significant difference
length of the small intestine ([6]; across the three Groups, FIG. 3): no differences were observed
median survival ([6]; apraglutide 3 mg/kg s.c. every second day Day -9 to +7, 7.0 Gy + transplant): 9 days
mice survived past Day 9 ([6]; apraglutide 3 mg/kg s.c., 7.0 Gy + transplant): 40%
animal survival (Kaplan-Meier, log-rank test) ([6]; apraglutide initiated before TBI/BMT, FIG. 14, p<0.03): significant difference relative to TBI/BMT animals
mice showing an intestinal pathological score of 0 ([6]; macroscopic score 0 least severe to 4 most severe, Group A): four out of out of ten
colon length ([7]; apraglutide 3 mg/kg s.c. every second day Day -9 to +7, 8.5 Gy, vs vehicle group and untreated control mice, FIG. 1): increased colon lengths that were nearly the same as the control mice
overall mean severity score of mucosal degenerative/inflammatory changes in the jejunum ([7]; apraglutide 3 mg/kg s.c., compared with vehicle, histological grading 1 to 3): slightly decreased
mean severity score of the regenerative cryptal hyperplasia ([7]; jejunum, apraglutide 3 mg/kg s.c., compared with vehicle): slightly increased
chemotherapy-induced weight loss ([8]; FIG. 8): attenuated
degenerative intestinal changes (villi and crypt atrophy) caused by cytarabine or melphalan ([8]; apraglutide 3.3 mg/kg co-administration, histology): reduced
overall survival ([8]; vs vehicle-only or chemotherapy-only groups, FIG. 9): improved
weight of duodenum, ileum and jejunum ([8]; with apraglutide): increased in weight

Nc1ccn([C@@H]2O[C@H](CO)[C@@H](O)[C@@H]2O)c(=O)n1 [Cytarabine only, Cytarabine]
polymorphonuclear (PMN) cell count [2]: depleted
Lymphocytes, percentage difference from control ([3]; at treatment end): −91%
Neutrophils, percentage difference from control ([3]; at treatment end): −82%
Platelets, percentage difference from control ([3]; at treatment end): −68%
Red blood cells, percentage difference from control ([3]; at treatment end): −23%
White blood cells, percentage difference from control ([3]; at treatment end): −89%
reduction in lymphocytes ([3]; end of the treatment period): 91%
Mean % of taxa at the Phylum level, Bacteroidetes, Day 0 ([9]; Day 0 (pre-treatment)): 16.3%
Mean % of taxa at the Phylum level, Firmicutes, Day 0 ([9]; Day 0 (pre-treatment)): 78.7%
Mean % of taxa at the Phylum level, Bacteroidetes, Day 18 [9, 11]: 48.7%
Mean % of taxa at the Phylum level, Firmicutes, Day 18 [9, 11]: 49.5%
percentage of hCD45 in bone marrow after chemotherapy [10]: 35.5±4%

N[C@@H](Cc1ccc(N(CCCl)CCCl)cc1)C(=O)O [melphalan, Melphalan]
LYMPH vs vehicle [1, 12]: severe decreases
WBC vs vehicle [1, 12]: severe decreases
